The record followed here is patent publication US20120122870A1, “Treatment Of Ischemia-Reperfusion Injury” (MUSC FOUNDATION FOR RESEARCH DEVELOPMENT, priority 2009, published 2012).

The target of one test is T1, recombinant human SK (Homo sapiens, UniProt Q9NYA1).
T1 construct: GST (glutathione-S-transferase) (N); made in house; host or cells: bacteria (pGEX bacterial expression vector)
Nature of the test: Recombinant human SK activity assay ([3H]sphingosine to [3H]S1P). Format: biochemical. As to conditions: Human SK incubated with 6 μg/mL of compound; percentage of SK activity inhibited.

Test [1] has as its system endogenous SK activity in MDA-MB-231 cells. Nature of the test: Cellular S1P production (endogenous SK activity) in MDA-MB-231 cells. Format: cell-based. Particulars: Homo sapiens; for inhibition at 20 µg/mL: MDA-MB-231, MDA-MB-231 cells incubated with 20 μg/mL of compound, percentage of S1P production inhibited. In a few lines: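 MDA-MB-231 cells treated with 20 μg/mL compound and assayed for endogenous SK activity, reported as % inhibition of S1P production. For IC50, cells received varying compound concentrations and S1P produced was measured; IC50 is the concentration giving 50% inhibition.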

T1 sequence (Q9NYA1 whole entry): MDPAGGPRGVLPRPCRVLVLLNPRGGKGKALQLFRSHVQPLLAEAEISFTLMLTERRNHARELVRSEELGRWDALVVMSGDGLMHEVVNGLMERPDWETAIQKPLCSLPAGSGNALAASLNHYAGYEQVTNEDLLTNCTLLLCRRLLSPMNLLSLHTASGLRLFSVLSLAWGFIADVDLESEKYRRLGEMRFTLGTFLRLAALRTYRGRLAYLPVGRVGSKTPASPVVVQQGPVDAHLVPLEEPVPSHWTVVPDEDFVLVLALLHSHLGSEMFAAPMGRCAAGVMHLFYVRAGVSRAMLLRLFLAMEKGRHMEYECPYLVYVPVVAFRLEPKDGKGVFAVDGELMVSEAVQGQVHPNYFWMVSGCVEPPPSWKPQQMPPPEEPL

`O=C(Nc1ccccc1)C12CC3CC(C1)CC(c1ccc(Cl)cc1)(C3)C2` [A4, 3-(4-Chloro-phenyl)-adamantane-1-carboxylic acid phenylamide]: the inhibition (as a rule, the drop in the measured response relative to a control, in per cent) at 6 µg/mL at recombinant human SK was found to be 44%. Also, at 20 µg/mL the inhibition in test [1] was 14%.
On to `O=C(Nc1ccc(O)cc1)C12CC3CC(CC(C3)C1)C2` [A5, Adamantane-1-carboxylic acid (4-hydroxy-phenyl)-amide], for which the inhibition at 6 µg/mL on recombinant human SK was 100%. The inhibition at 20 µg/mL in test [1] was found to be 17%.
Turning to `O=C(Nc1ccc(O)cc1)C12CC3CC(C1)CC(c1ccc(Cl)cc1)(C3)C2` [A6, 3-(4-Chloro-phenyl)-adamantane-1-carboxylic acid (4-hydroxy-phenyl)-amide], the inhibition at 6 µg/mL on recombinant human SK came out at 72%. This molecule registered an inhibition at 20 µg/mL in test [1] of 90%. In addition, the midpoint of inhibition in test [1] (MDA-MB-231 cells, varying concentrations, concentration inhibiting S1P production by 50%), the IC50, lay at 15 µM.
As for `CC(=O)Oc1ccc(NC(=O)C23CC4CC(C2)CC(c2ccc(Cl)cc2)(C4)C3)cc1` [A7, Acetic acid 4-{[3-(4-chloro-phenyl)-adamantane-1-carbonyl]-amino}-phenyl ester], the inhibition at 6 µg/mL on recombinant human SK came to 100%. Moreover, the inhibition at 20 µg/mL in test [1] worked out at 96%.
`O=C(Nc1ccc(O)cc1O)C12CC3CC(C1)CC(c1ccc(Cl)cc1)(C3)C2` [A8, 3-(4-Chloro-phenyl)-adamantane-1-carboxylic acid (2,4-dihydroxy-phenyl)-amide]: the inhibition at 6 µg/mL on recombinant human SK is 49%. In addition, testing at 20 µg/mL in test [1] gave an inhibition of 0%.
As to `O=C(Nc1cccc(CO)c1)C12CC3CC(C1)CC(c1ccc(Cl)cc1)(C3)C2` [A9, 3-(4-Chloro-phenyl)-adamantane-1-carboxylic acid (3-hydroxymethyl-phenyl)-amide], the inhibition at 6 µg/mL on recombinant human SK is 84%. Further, in test [1], the inhibition at 20 µg/mL amounted to 40%.
In the case of `N#CCc1ccc(NC(=O)C23CC4CC(CC(C4)C2)C3)cc1` [A10, Adamantane-1-carboxylic acid (4-cyanomethyl-phenyl)-amide], on recombinant human SK, the inhibition at 6 µg/mL was found to be 3%. The same molecule came in with an inhibition at 20 µg/mL in test [1] of 9%.
Regarding `N#CCc1ccc(NC(=O)C23CC4CC(C2)CC(c2ccc(Cl)cc2)(C4)C3)cc1` [A11, 3-(4-Chloro-phenyl)-adamantane-1-carboxylic acid (4-cyanomethyl-phenyl)-amide], the inhibition at 6 µg/mL on recombinant human SK worked out at 17%. In addition, in test [1], 20 µg/mL produced 0% inhibition.
`O=C(NCc1ccccc1)C12CC3CC(C1)CC(c1ccc(Cl)cc1)(C3)C2` [A12, 3-(4-Chloro-phenyl)-adamantane-1-carboxylic acid benzylamide]: the inhibition at 6 µg/mL on recombinant human SK was found to be 36%. This molecule also came in with an inhibition at 20 µg/mL in test [1] of 3%.
The corresponding values for `CC(C)(C)c1ccc(CNC(=O)C23CC4CC(C2)CC(c2ccc(Cl)cc2)(C4)C3)cc1` [A13, 3-(4-Chloro-phenyl)-adamantane-1-carboxylic acid 4-tert-butyl-benzylamide] are 78% and 0%.
Take `CC(NC(=O)C12CC3CC(C1)CC(c1ccc(Cl)cc1)(C3)C2)c1ccc(Br)cc1` (centres unmarked) [A29, 3-(4-Chloro-phenyl)-adamantane-1-carboxylic acid [1-(4-bromo-phenyl)-ethyl]-amide]: the inhibition at 6 µg/mL at recombinant human SK is 55%. This molecule also showed an inhibition at 20 µg/mL in test [1] of 0%.
`O=C(NCc1ccc(O)c(O)c1)C12CC3CC(CC(C3)C1)C2` [A35, Adamantane-1-carboxylic acid 3,4-dihydroxy-benzylamide]: the inhibition at 6 µg/mL on recombinant human SK amounted to 87%. The same molecule had an inhibition at 20 µg/mL in test [1] of 0%.
As for `O=C(NCCc1ccccc1)C12CC3CC(C1)CC(c1ccc(Cl)cc1)(C3)C2` [A37, 3-(4-Chloro-phenyl)-adamantane-1-carboxylic acid phenethyl-amide], the inhibition at 6 µg/mL on recombinant human SK is 24%. For the same molecule, in test [1], the inhibition at 20 µg/mL worked out at 36%.
Turning to `O=C(NCCc1ccc(F)cc1)C12CC3CC(C1)CC(c1ccc(Cl)cc1)(C3)C2` [A38, 3-(4-Chloro-phenyl)-adamantane-1-carboxylic acid [2-(4-fluoro-phenyl)-ethyl]-amide], the inhibition at 6 µg/mL at recombinant human SK came to 40%. In test [1], this molecule had an inhibition at 20 µg/mL of 34%.
